This is an account of results in paper PMC12735718, “Novel Adamantane–Sclareol Hybrids Exploit ROS Vulnerability to Overcome Multidrug-Resistance in Glioblastoma Cells” (Molecules, 2025).

The test system of experiment [1] is TrxR (SH-SY5Y cell lysate). Description: Colorimetric detection of cell lysate TrxR activity (DTNB). The class given is biochemical, human. As to conditions: positive control, 20 µM, DTNB absorbance over 20 min. The source says: We further analyzed the potential of adamantane–sclareol hybrids to inhibit TrxR enzyme activity using a colorimetric assay for the detection of TrxR activity in cell lysates. This kinetic assay is based on the ability of TrxR to reduce its substrate 5,5ʹ-dithiobis(2-nitrobenzoic acid) (DTNB) to the yellow product 5-thio-2-nitrobenzoic acid (TNB) in the presence of NADPH. The absorbance of the produced TNB is considered equivalent to the enzymic activity of TrxR. In the kinetic assay, the absorbance of DTNB was measured over 20 min, resulting in a curve showing the dependence of absorbance on time.
TrxR enzyme activity in cell lysate was determined by the reduction of the TrxR substrate DTNB to the yellow product TNB in the presence of NADPH (Acros Organics, Thermo Fisher Scientific, Waltham, MA, USA). Lysate from human neuroblastoma SH-SY5Y cells was used for the TrxR assay. SH-SY5Y cells were grown to 80% confluence, washed twice with PBS, and detached using Hanks-based enzyme-free dissociation solution (Millipore, Billeri-ca, MA, USA). Collected cells were centrifuged at 2000 rpm for 3 min and rinsed in PBS buffer. After additional centrifugation, cells were lysed on ice using Lysis Buffer (50 mM Tris, 150 mM NaCl, 1 mM EDTA, 1% NP40, 0.1% SDS, 0.5% Na-deoxycholate, pH 7.8) containing protease inhibitor mix G (SERVA Electrophoresis GmbH, Heidelberg, Germany) and phosphatase inhibitor cocktail 3 (Sigma-Aldrich, Darmstadt, Germany). The cell lysates were centrifuged at 16,000× g for 15 min at 4 °C. The protein concentrations of the supernatants were determined using a Pierce^TM BCA protein assay kit (Thermo Fisher Scientific, Waltham, MA, USA). The reactions were run in 96-well plates, in a final volume of 100 μL, in 50 mM potassium phosphate buffer (pH 7.0) containing 50 μg of cell lysate proteins, 1 mM EDTA, 50 mM KCl, 0.2 mg/mL BSA, and 0.25 mM NADPH. […] Enzyme kinetics were monitored on an automated microplate reader (MultiskanSky, Thermo Fisher Scientific, Waltham, MA, USA) by measuring the increase in absorbance at 412 nm for 20 min. […]

The subject of experiment [2] is H2O2 and peroxynitrite anion levels in U87-TxR cells. Nature of the experiment: ROS detection by DHR, U87-TxR. In kind it is cell-based, human. To be noted: 10 µM. As for the experimental part: The levels of ROS were measured in U87 and U87-TxR cells by flow cytometry. The production of superoxide anions was detected using DHE fluorescence dye, while production of H2O2 and peroxynitrite anions was detected using DHR fluorescence dye. Cells were seeded in 6-well plates (150,000 cell/well) and incubated overnight. The cells were then treated with compounds 2 or 5 (4 μM) for 24 h and 48 h. CDDP (10 μM) was used as a positive control. After the treatment period, the cells were stained with DHE or DHR for 30 min in the dark. Following incubation, cells were harvested with trypsinization and washed twice in cold phosphate buffer solution (PBS). Fluorescence was measured on a CytoFlex flow cytometer (Beckman Coulter, Indianapolis, IN, USA). Green fluorescence from the oxidized DHR dye was detected at 525 nm, while the red fluorescence from ethidium derived from DHE was detected at 585 nm. At least 10,000 events were assayed for each sample. The results were analyzed by CytExpert 2.4.0.28 software (Beckman Coulter, Indianapolis, IN, USA).

The next experiment concerns A-172 cells. Description: MTT cell viability assay, A-172. As to conditions: Homo sapiens, 72 h treatment. The class given is cell-based. How it is done: (§1) Cell viability was measured using the colorimetric MTT assay based on the reduction of MTT into formazan dye. Cell lines were seeded into 96-well cell culture plates (4000 cells/well) in appropriate medium. After overnight incubation, cells were treated with increasing concentrations of 1, 2, 3, 4, 5, and 6 (0.5, 1, 2, 4, and 8 µM). After 72 h treatment, MTT solution (4 mg/mL) was added and plates were incubated at 37 °C with 5% CO2 for 3 h. After incubation, formazan crystals were dissolved using 100 µL DMSO, resulting in a purple color. The absorbance was measured at 570 nm with a reference wavelength of 690 nm using an automated microplate reader (MultiskanSky, Thermo Scientific, USA). The IC50 values were determined by non-linear regression analysis in GraphPad Prism 8.0.2. software (GraphPad Software, Boston, MA, USA).
For orientation: Formazan colour is commonly taken as a measure of viable cells.

The next experiment concerns U87 cells. Nature of the experiment: MTT cell viability assay, U87. In kind it is cell-based. As to conditions: Homo sapiens, U-87 MG, 72 h treatment. As for the experimental part: as §1
Experiment [3] relates to U87-TxR cells. Description: MTT cell viability assay, U87-TxR. In kind it is cell-based, human. As to conditions: for IC50: Homo sapiens, U87-TxR, 72 h treatment, MTT, MDR cell line; for Relative Resistance Factor: ratio of IC50 values U87-TxR / U87. As for the experimental part: as §1
The subject of the next experiment is SVG p12 cells. Nature of the experiment: MTT cell viability assay, SVG p12. The class given is cell-based, human. As to conditions: for IC50: Homo sapiens, SVGp12, 72 h treatment, MTT, normal glial cell line; for Selectivity Index: IC50 SVG p12 vs average IC50 in A-172, U87 and U87-TxR. How it is done:
as §1

In experiment [4] the test system is U87-TxR cells. Description: Cell death detection, AV/PI staining, U87-TxR. The class given is cell-based, human. To be noted: 48 h; for cell death effect in MDR U87-TxR cells vs sensitive U87 cells: 4 µM, AV/PI; for percentage of early apoptotic cells vs untreated: 2 µM and 4 µM, particularly at 4 µM. How it is done: To evaluate the extent of cell death upon treatment with adamantane–sclareol hybrids, apoptotic, necrotic, and viable cell populations were assessed using dual staining with AV/PI. U87 and U87-TxR cells were seeded in 6-well plates at a density of 150,000 cells per well and incubated overnight. Subsequently, cells were treated with 2 and 5 (2 µM and 4 µM) for 48 h. At the end of the treatment period, cells were collected (both adherent and floating), washed, and incubated with AV/PI in binding buffer. Samples were analyzed using a CytoFLEX flow cytometer (Beckman Coulter, Indianapolis, IN, USA), with fluorescence signals detected at 525 nm (AV) and 585 nm (PI). At least 10,000 events were recorded per each condition. The percentages of viable (AV^− PI^−), early apoptotic (AV^+ PI^−), late apoptotic (AV^+ PI^+), and necrotic (AV^− PI^+) cells were calculated using CytExpert 2.4.0.28 software (Beckman Coulter, Indianapolis, IN, USA).

The subject of experiment [5] is U87-TxR cells. Nature of the experiment: Combination with PTX, MTT assay. The class given is cell-based, human. To be noted: Homo sapiens, U87-TxR; PTX alone, 72 h. How it is done: as §1
The combined effects of 2 and 5 with PTX were studied in U87-TxR cells by MTT assay as previously described. In simultaneous treatments that lasted 72 h, three concentrations of 2 and 5 (0.5, 1, and 2 µM) were combined with three concentrations of PTX (0.1 μM, 0.2 μM, and 0.5 μM). Drug combination effects were evaluated using the Chou–Talalay method, which calculates the combination index (CI) value for the degree of interaction between the drugs. This method allows quantitative assessment of synergism (CI < 1), additivity (CI close to 1), or antagonism (CI > 1) across a range of dose–effect relationships. Calcusyn® version 1.1 software was used for data analysis (Biosoft, Cambridge UK). Three data points were used for each single drug in each designed experiment. The non-constant ratio combination was chosen to assess the effect of both drugs in combination. The results are presented in a fraction-affected CI graph.

The subject of experiment [6] is mitochondrial membrane potential in U87 and U87-TxR cells. Description: TMRE mitochondrial membrane potential. In kind it is cell-based, human. To be noted: 10 µM, added 30 min before staining. How it is done: The cell-permeable fluorescent dye TMRE was used to evaluate mitochondrial membrane potential. TMRE selectively accumulates in active mitochondria with intact membrane potential. […] U87 and U87-TxR cells were seeded in 6-well plates at a density of 150,000 cells per well. After 24 h, cells were treated with 2 and 5 (4 µM) and incubated for an additional 24 h. After treatment, cells were trypsinized, resuspended in complete medium containing 500 nM TMRE, and incubated for 30 min at 37 °C in the dark. CCCP (10 µM) was used as a positive control for mitochondrial depolarization and added 30 min before staining. For each sample, at least 10,000 events were collected. TMRE was detected at […]. The results were calculated using CytExpert 2.4.0.28 software (Beckman Coulter, Indianapolis, IN, USA).

As to `O=C(O)CC([S-])C(=O)O.[Au+]` (stereo not drawn) [ATM, aurothiomalate, reference compound], the TrxR enzyme activity entry in experiment [1] is “inhibited TrxR activity”.

As for `[NH2][Pt]([NH2])([Cl])[Cl]` [CDDP, Cisplatin, reference compound], in [2], the “positive control effect on ROS, U87-TxR vs U87” value is “more potent effects in MDR U87-TxR cells”.

For orientation: IC50 means the midpoint of a concentration-inhibition curve. On to `CC1(C)CCC[C@]2(C)[C@@H](CC[C@@](C)(O)/C=C/c3ccc(CNCCCCCCNCC45CC6CC(CC(C6)C4)C5)s3)[C@](C)(O)CC[C@@H]12` [Compound 1], for which the concentration for half-maximal inhibition (IC50) in the experiment on A-172 cells worked out at 2.47 ± 0.036 µM; in the experiment with U87 cells it was 2.4 ± 0.061 µM; in the experiment on U87-TxR cells [3], 2.08 ± 0.037 µM; in the experiment with SVG p12 cells, 5.33 ± 0.132 µM. The “Relative Resistance Factor” value with U87-TxR cells [3] came to 0.869. For the same compound, the “Selectivity Index” value in the experiment on SVG p12 cells was 2.300 ^S. In the experiment with U87-TxR cells [4], the “cell death effect in MDR U87-TxR cells vs sensitive U87 cells” value (“cell death effect … vs sensitive U87 cells” for short) is “significantly better effects in MDR U87-TxR cells”.

In the experiment on A-172 cells, `CC1(C)CCC[C@]2(C)[C@@H](CC[C@@](C)(O)/C=C/c3ccc(CNCCCCCCNCCC45CC6CC(CC(C6)C4)C5)s3)[C@](C)(O)CC[C@@H]12` [Compound 3] came in with an IC50 of 3.36 ± 0.057 µM. The compound further came in with an IC50 with U87 cells of 2.2 ± 0.052 µM. In the experiment with U87-TxR cells [3], inhibition was half-maximal at 2.31 ± 0.052 µM (IC50) and the “Relative Resistance Factor” value is listed as 1.049. Moreover, in the experiment on SVG p12 cells, the half-inhibitory concentration (IC50) worked out at 9.29 ± 0.169 µM and the “Selectivity Index” value is given as 3.541 ^S. Besides, in the experiment on U87-TxR cells [4], the “cell death effect … vs sensitive U87 cells” value was “significantly better effects in MDR U87-TxR cells” and the “percentage of early apoptotic cells vs untreated” value is listed as “significant increase”.

For the compound `CC1(C)CCC[C@]2(C)[C@@H](CC[C@@](C)(O)/C=C/c3ccc(CNCCCCCCNCC45CC6CC(CC(C6)C4)C5)o3)[C@](C)(O)CC[C@@H]12` [Compound 4], the IC50 turned out to be 1.38 ± 0.018 µM in the experiment with A-172 cells, 1.25 ± 0.036 µM in the experiment with U87 cells, 1.46 ± 0.027 µM in the experiment on U87-TxR cells [3] and 0.918 ± 0.022 µM in the experiment with SVG p12 cells. In the experiment with U87-TxR cells [3], the “Relative Resistance Factor” value was 1.160. In the experiment with SVG p12 cells, the “Selectivity Index” value was 0.686. The “cell death effect … vs sensitive U87 cells” value with U87-TxR cells [4] is reported as “significantly better effects in MDR U87-TxR cells”. Besides, the “percentage of early apoptotic cells vs untreated” value with U87-TxR cells [4] is “significant increase”. Moreover, in the experiment on U87-TxR cells [4] (untreated cells 4.17%, Figure S3), the “early apoptotic population (AV+ PI−)” value was 26.84%.

As to `CC1(C)CCC[C@]2(C)[C@@H](CC[C@@](C)(O)/C=C/c3ccc(CNCCCCCCNCCC45CC6CC(CC(C6)C4)C5)o3)[C@](C)(O)CC[C@@H]12` [Compound 6], the IC50 in the experiment on A-172 cells is 2 ± 0.026 µM; with U87 cells, 2.47 ± 0.066 µM; in the experiment with U87-TxR cells [3], 1.91 ± 0.046 µM; in the experiment with SVG p12 cells, 1.16 ± 0.027 µM. In addition, the “Selectivity Index” value in the experiment with SVG p12 cells was determined as 0.547.

For `CC(=O)O[C@H]1C(=O)[C@@]2(C)[C@H]([C@H](OC(=O)c3ccccc3)[C@]3(O)C[C@H](OC(=O)[C@H](O)[C@@H](NC(=O)c4ccccc4)c4ccccc4)C(C)=C1C3(C)C)[C@]1(OC(C)=O)CO[C@@H]1C[C@@H]2O` [PTX, paclitaxel, reference compound], in the experiment with U87-TxR cells [5], the IC50 turned out to be 0.688 ± 0.022 µM.

“Carbonyl cyanide m-chlorophenyl hydrazine [CCCP, reference compound]”: the “positive control effect on mitochondrial membrane potential, U87-TxR vs U87” value in experiment [6] is “more potent effects in MDR U87-TxR cells”.
